pKi: −log10 of the molar value.
biological target: T1, human adenosine A2A receptor (Homo sapiens, UniProt P29274); experiment: [3H]-SCH-58261 binding assay, human adenosine A2A receptor; details: membranes of CHO cells recombinantly expressing the human A2A receptor, Ki from IC50 by Cheng-Prussoff equation, read-out: HA2A KI
T1 construct: expressed in transfected cells; host or cells: CHO cells, Semliki Forest virus expression system; membrane preparation
Protocol: Human Adenosine A2A Receptor
The human adenosine A2A receptor was recombinantly expressed in Chinese hamster ovary (CHO) cells using the semliki forest virus expression system. Cells were harvested, washed twice by centrifugation, homogenized and again washed by centrifugation. The final washed membrane pellet was suspended in a Tris (50 mM) buffer containing 120 mM NaCl, 5 mM KCl, 2 mM CaCl2 and 10 mM MgCl2 (pH 7.4) (buffer A). The [^3H]-SCH-58261 (Dionisotti et al., 1997, Br. J. Pharmacol. 121, 353) binding assay was carried out in 96-well plates in the presence of 2.5 μg of membrane protein, 0.5 mg of Ysi-poly-l-lysine SPA beads and 0.1 U adenosine deaminase in a final volume of 200 μl of buffer A. Non-specific binding was defined using xanthine amine congener (XAC; 2 μM). Compounds were tested at 10 concentrations from 10 μM to 0.3 nM. All assays were conducted in duplicate and repeated at least twice. Assay plates were incubated for 1 hour at room temperature before centrifugation and then bound ligand was determined using a Packard Topcount scintillation counter. IC50 values were calculated using a non-linear curve fitting program and Ki values calculated using the Cheng-Prussoff equation.
In accordance with the invention, the compounds of formula I have a high affinity toward the A2A receptor. The table below (after Example 10) describes specific values of prepared compounds.

T1 sequence (P29274 whole entry): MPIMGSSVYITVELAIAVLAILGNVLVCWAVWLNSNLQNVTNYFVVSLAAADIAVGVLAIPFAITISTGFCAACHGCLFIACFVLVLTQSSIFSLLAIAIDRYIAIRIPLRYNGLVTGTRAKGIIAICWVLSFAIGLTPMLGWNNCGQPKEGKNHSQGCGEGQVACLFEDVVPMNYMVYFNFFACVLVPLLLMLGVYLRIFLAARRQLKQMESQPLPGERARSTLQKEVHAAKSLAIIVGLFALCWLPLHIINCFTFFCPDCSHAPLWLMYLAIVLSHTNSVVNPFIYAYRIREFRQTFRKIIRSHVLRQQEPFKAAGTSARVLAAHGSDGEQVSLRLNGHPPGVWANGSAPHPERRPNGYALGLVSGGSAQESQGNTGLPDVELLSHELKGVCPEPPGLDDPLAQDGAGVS

| SMILES | pKi |
| --- | --- |
| COc1ccc(-c2ccccc2)c2nc(NC(=O)c3ccc(C(F)(F)F)cc3)nn12 [Example 11, N-(5-Methoxy-8-phenyl-[1,2,4]triazolo[1,5-a]pyridin-2-yl)-4-trifluoromethyl-benzamide] | 6.05 |
| COc1ccc(-c2ccc(F)cc2)c2nc(NC(=O)c3ccc(Br)cc3)nn12 [Example 12, 4-Bromo-N-[8-(4-fluoro-phenyl)-5-methoxy-[1,2,4]triazolo[1,5-a]pyridin-2-yl]-benzamide] | 6.11 |
| COc1cccc(-c2ccc(OC)n3nc(NC(=O)c4ccc(Br)cc4)nc23)c1 [Example 13, 4-Bromo-N-[5-methoxy-8-(3-methoxy-phenyl)-[1,2,4]triazolo[1,5-a]pyridin-2-yl]-benzamide] | 6.32 |
| COc1ccc(Br)c(C(=O)Nc2nc3c(-c4cccc(F)c4)ccc(OC)n3n2)c1 [Example 14, 2-Bromo-N-[8-(3-fluoro-phenyl)-5-methoxy-[1,2,4]triazolo[1,5-a]pyridin-2-yl]-5-methoxy-benzamide] | 6.04 |
| COc1ccc(-c2cccc(F)c2)c2nc(NC(=O)c3ccc(Br)o3)nn12 [Example 15, 5-Bromo-furan-2-carboxylic acid [8-(3-fluoro-phenyl)-5-methoxy-[1,2,4]triazolo[1,5-a]pyridin-2-yl]-amide] | 6.24 |
| COc1cccc(-c2ccc(OC)n3nc(NC(=O)c4ccc(Br)o4)nc23)c1 [Example 16, 5-Bromo-furan-2-carboxylic acid [5-methoxy-8-(3-methoxy-phenyl)-[1,2,4]triazolo[1,5-a]pyridin-2-yl]-amide] | 6.25 |
| COc1ccc(-c2ccccc2)c2nc(NC(=O)c3cccc(C)c3)nn12 [Example 17, N-(5-Methoxy-8-phenyl-[1,2,4]triazolo[1,5-a]pyridin-2-yl)-3-methyl-benzamide] | 6.01 |
| COc1ccc(-c2ccc(F)cc2)c2nc(NC(=O)c3ccc(F)cc3)nn12 [Example 18, 4-Fluoro-N-[8-(4-fluoro-phenyl)-5-methoxy-[1,2,4]triazolo[1,5-a]pyridin-2-yl]-benzamide] | 6.18 |
| COc1cccc(-c2ccc(OC)n3nc(NC(=O)c4ccc(F)cc4)nc23)c1 [Example 19, 4-Fluoro-N-[5-methoxy-8-(3-methoxy-phenyl)-[1,2,4]triazolo[1,5-a]pyridin-2-yl]-benzamide] | 6.13 |
| COc1ccc(-c2ccc(F)cc2)c2nc(NC(=O)c3ccccc3F)nn12 [Example 20, 2-Fluoro-N-[8-(4-fluoro-phenyl)-5-methoxy-[1,2,4]triazolo[1,5-a]pyridin-2-yl]-benzamide] | 6.11 |
| COc1cccc(-c2ccc(OC)n3nc(NC(=O)c4cccs4)nc23)c1 [Example 21, Thiophene-2-carboxylic acid[5-methoxy-8-(3-methoxy-phenyl)-[1,2,4]thiazolo[1,5-a]pyridin-2-yl]-amide] | 6.29 |

— patent publication US6693116B2, “Adenosine receptor ligands” (Hoffmann-La Roche Inc., priority 2001, dated 2004)
